Patent US20200378993A1, “MEDICAL USES OF APOLIPOPROTEIN A AND ACTIVATORS THEREOF” (FUNDACIÓN IMDEA ALIMENTACIÓN, priority 2017, published 2020)

Key:
Format in all cases: cell-based, human
[1] = system: D1D1 cell lines expressing increased ApoA1 levels (D_ApoA1); assay: Cell viability and proliferation (xCELLigence) with ShApoA1/scramble transfection; conditions: 30 μM RVX-208, ApoA1 expression not inhibited (Scr+Rvx-208); D_ApoA1 cells
Description: FIG. 9: A) Proliferation curve in a viability assay carried out by means of XCELLigence technology. Growth of DLD1 cells treated with DMSO as the drug carrier and with Rvx-208 (30 μM). Control cells (scramble, SCR) are shown in black. Cells transfected with anti-ApoA1 short hairpin are shown in gray. The significant differences existing in the values of the slope of the graphs on the left-hand side, and therefore in the growth dynamics of the treated cells, are shown in the right panels (*p-value=0.0471; **p-value=0.0067; ****p-value<0.0001). B) Invasion assays in cells with silenced ApoA1 expression. For the purpose of confirming that the effects of RVX-208 in cell phenotype recovery were due to the increase in ApoA-1 expression, the inventors inhibited the expression of said protein by means of transfection of a complementary small RNA, ShApoA1 (FIG. 9). Twenty-four hours after transfection with ShApoA1 expression vector, the inventors started treatment with 30 μM of RVX-208. Cell viability and proliferation in DLD1 cells (D_NoORF) and D1D1 cell lines expressing increased ApoA1 levels (D_ApoA1 ) were analyzed with the xCELLigence system.

apolipoprotein A1 = assay: ApoA1 immunodetection by Western blot; conditions: RVX-208 (30 μM) versus DMSO carrier
Description: FIG. 7. A) Proliferation curve in a viability assay carried out by means of XCELLigence technology. Growth of DLD1 cells treated with DMSO as the drug carrier and with Rvx-208 (30 μM). The significant differences existing in the slope of the graph, and therefore in the growth dynamics of the treated cells are shown in the right panel (****p-value<0.0001). B) Migration and invasion assays. The method followed was the same as the one described in FIG. 2 (*p-value=0.0407; ****p-value<0.0001). C) Expression levels of proteins E-cadherin and Vimentin in the presence and absence of Rvx-208. Analysis performed by means of quantitative PCR. The relative expression levels normalized with respect to the untreated control are shown. D) ABCA1, ApoA1, caveolin-1, and α-tubulin immunodetection by means of Western blot. α-tubulin acts as load control. The results of the cells treated with Rvx-208 (30 μM) or with the DMSO carrier are shown. E) Cholesterol flux in cells treated with Rvx-208. The inventors were able to confirm said results based on the treatment of DLD1 cells expressing ABCA1 with RVX-208 under the conditions already described in detail in Example 3. […] The levels of caveolin-1, a protein whose increased levels have been associated with increases in cell migration and invasion, were also analyzed in this experiment.

[2] = system: ABCA1 cholesterol transporter; assay: ABCA1 messenger RNA and protein level after treatment; conditions: treatment with Rvx-208 (30 μM); Western blot
Description: FIG. 6. A) Proliferation curve in a viability assay carried out by means of XCELLigence technology. The results for the stable cell line overexpressing ABCA1 in the absence and presence of ApoA1 are shown. The cells were treated for 72 hours before the experiment with 40 μg/ml of ApoA1 and with a concentration of 20 μg/ml during acquisition. B) Migration and invasion assays. The method followed was the same as the one described in FIG. 1. (**p-value=0.003; ****p-value<0.0001). C) ABCA1 messenger RNA level (left panel) and ABCA1 protein level (right panel) in the presence and absence of treatment with ApoA1. Results are shown both for the control cells and for those cells overexpressing the transporter.
FIG. 7. A) Proliferation curve in a viability assay carried out by means of XCELLigence technology. Growth of DLD1 cells treated with DMSO as the drug carrier and with Rvx-208 (30 μM). The significant differences existing in the slope of the graph, and therefore in the growth dynamics of the treated cells are shown in the right panel (****p-value<0.0001). B) Migration and invasion assays. The method followed was the same as the one described in FIG. 2 (*p-value=0.0407; ****p-value<0.0001). C) Expression levels of proteins E-cadherin and Vimentin in the presence and absence of Rvx-208. Analysis performed by means of quantitative PCR. The relative expression levels normalized with respect to the untreated control are shown. D) ABCA1, ApoA1, caveolin-1, and α-tubulin immunodetection by means of Western blot. α-tubulin acts as load control. The results of the cells treated with Rvx-208 (30 μM) or with the DMSO carrier are shown. E) Cholesterol flux in cells treated with Rvx-208.
Cell viability and proliferation assays were carried out by means of XCELLigence technology (ACEA Biosciences, Inc.) following the manufacturer's indications. Migration and invasion assays were carried out in Corning® BioCoat™ Control plates (#354578) and Corning® BioCoat™ Matrigel plates (#354480), respectively, following the manufacturer's indications. For the rescue assays, the cells were treated for 72 hours with 30 μM apabetalone (RVX-208; Biovision). Antibodies: ABCA1 (Ab18180, Abcam. 1:500); caveolin-1 (Ab2910, Abcam. 1:1000); α-tubulin (T9026, Sigma 1:1000). The DLD1 cells correspond to a human colorectal cancer-derived adherent epithelial cell line (ATCC® CCL-221™). […]
The inventors were able to confirm said results based on the treatment of DLD1 cells expressing ABCA1 with RVX-208 under the conditions already described in detail in Example 3. […] The levels of caveolin-1, a protein whose increased levels have been associated with increases in cell migration and invasion, were also analyzed in this experiment.

DLD1 cells = assay: Migration assay (Corning BioCoat Control plates); conditions: RVX-208 30 μm 72 hours then 15 μM
Description: Cell viability and proliferation assays were carried out by means of XCELLigence technology (ACEA Biosciences, Inc.) following the manufacturer's indications. Migration and invasion assays were carried out in Corning® BioCoat™ Control plates (#354578) and Corning® BioCoat™ Matrigel plates (#354480), respectively, following the manufacturer's indications. For the rescue assays, the cells were treated for 72 hours with 30 μM apabetalone (RVX-208; Biovision). Antibodies: ABCA1 (Ab18180, Abcam. 1:500); caveolin-1 (Ab2910, Abcam. 1:1000); α-tubulin (T9026, Sigma 1:1000). The DLD1 cells correspond to a human colorectal cancer-derived adherent epithelial cell line (ATCC® CCL-221™). The stable cell lines capable of overexpressing ABCA1 were obtained by means of transduction with genetically modified lentivirus.
Following the same treatment regimen, the inventors carried out migration and invasion assays.
The same assays were repeated by replacing ApoA1 with a treatment with RVX-208. In this case, DLD1 cells were pre-treated for 72 hours before the start of the experiment with RVX-208 at a concentration of 30 μm and were subjected to a treatment with 15 μM of RVX-208 during the development of the experiments.

COc1cc(OC)c2c(=O)[nH]c(-c3cc(C)c(OCCO)c(C)c3)nc2c1 [RVX-208, 2-(4-(2-hydroxyethoxy)-3,5-dimethylphenyl)-5,7-dimethoxyquinazolin-4(3H)-one] was tested. Which proliferation indices [1] did it give?
Its proliferation indices is “significantly lower”.

And the “apolipoprotein A1 expression levels” value (apolipoprotein A1)?
Its value is “increase in apolipoprotein A1 expression levels”.

What about the ABCA1 expression levels [2] of the same compound?
The ABCA1 expression levels was “reduces ABCA1 expression levels”.

What about the migratory capacity (DLD1 cells) of the same compound?
Its migratory capacity is “significant decreases the migratory and invasive capacity”.
